Data set [1] addresses purified recombinant human topoisomerase II (Homo sapiens, UniProt P11388). Put plainly: Topoisomerase II inhibition assay (cleavage and relaxation). The data set is classed as biochemical. Particulars: test compound at 1 mM, 100 μM, or 10 μM; plasmid DNA, agarose gel. As for the experimental part:
Topoisomerase II assay—Plasmid DNA (0.3 μg) was incubated at 37° C. with 4 units of purified recombinant human topoisomerase II in cleavage buffer (30 mM Tris.HCl, pH 7.6, 60 mM NaCl, 3 mM ATP, 15 mM mercaptoethanol, 8 mM MgCl2) with or without the addition of test compound (at 1 mM, 100 μM, or 10 μM final concentration). Reactions were stopped by the immediate addition of SDS (1% w/v final). Samples were treated with proteinase K (30 min at 37° C.) and extracted twice with an equal volume of […] CHCl3/i-amyl alcohol. […] Topoisomerase II inhibition was judged by the production of linear plasmid DNA, representing trapped cleavage intermediate, and by the ratio of substrate (spercoiled DNA) to product (relaxed DNA). A relaxation assay was performed identically, except that the reaction buffer was optimised for the detection of catalysis rather than cleavage, i.e. only 2 units of enzyme were used per sample. The reaction buffer was 50 mM Tris.HCl, pH 8, 120 mM KCl, 0.5 mM ATP, 0.5 mM dithiothreitol, 10 mM MgCl2. Topoisomerase II inhibition was judged by the ratio of substrate (supercoiled DNA) to product (relaxed DNA).

The test system of data set [2] is CH1Dox^R. Description: Carcinoma cell line panel, SRB-assay. As to conditions: 96 h, read-out: 96-h IC50 cytotoxicity. As for the experimental part: (§1) After incubation for 96 h, cytotoxicity was assessed using a standard SRB-assay.
(In general: The SRB assay estimates cell density from bound dye.)

Data set [3] deals with A2780. Description: Carcinoma cell line panel, SRB-assay. As to conditions: Homo sapiens, A2780, 96 h, read-out: 96-h IC50 cytotoxicity. As for the experimental part:
as §1

In data set [4] the test system is LIM1215. Put plainly: Carcinoma cell line panel, SRB-assay. Particulars: LIM1215, 96 h, read-out: 96-h IC50 cytotoxicity. As for the experimental part: as §1
Data set [5] concerns BE. Description: Carcinoma cell line panel, SRB-assay. As to conditions: 96 h, read-out: 96-h IC50 cytotoxicity. As for the experimental part:
as §1

Data set [6] concerns KM12. Put plainly: Carcinoma cell line panel, SRB-assay. Particulars: Homo sapiens, KM12, 96 h, read-out: 96-h IC50 cytotoxicity. As for the experimental part:
as §1

Data set [7] relates to CH1. Description: Carcinoma cell line panel, SRB-assay. Particulars: Homo sapiens, CH1, 96 h, read-out: 96-h IC50 cytotoxicity. As for the experimental part:
as §1

The subject of data set [8] is HCT116. Description: Carcinoma cell line panel, SRB-assay. Particulars: Homo sapiens, HCT-116, 96 h, read-out: 96-h IC50 cytotoxicity. As for the experimental part: as §1
In data set [9] the test system is CH1Taxol^R. Put plainly: Carcinoma cell line panel, SRB-assay. Particulars: 96 h, read-out: 96-h IC50 cytotoxicity. As for the experimental part:
as §1

Data set [10] has as its system LS174T. Put plainly: Carcinoma cell line panel, SRB-assay. Particulars: Homo sapiens, 96 h, read-out: 96-h IC50 cytotoxicity. As for the experimental part:
as §1

For data set [11], the system named is SKOV-3. Description: Carcinoma cell line panel, SRB-assay. Particulars: Homo sapiens, SK-OV-3, 96 h, read-out: 96-h IC50 cytotoxicity. As for the experimental part:
as §1

In data set [12] the test system is DLD-1. Put plainly: Carcinoma cell line panel, SRB-assay. As to conditions: Homo sapiens, DLD-1, 96 h, read-out: 96-h IC50 cytotoxicity. As for the experimental part:
as §1

Data set [13] concerns HT29. Description: Carcinoma cell line panel, SRB-assay. Particulars: Homo sapiens, HT-29, 96 h, read-out: 96-h IC50 cytotoxicity. As for the experimental part: as §1
The subject of data set [14] is COLO205. Description: Carcinoma cell line panel, SRB-assay. Particulars: Homo sapiens, COLO 205, 96 h, read-out: 96-h IC50 cytotoxicity. As for the experimental part:
as §1

The test system of data set [15] is A2780Cis^R. Description: Carcinoma cell line panel, SRB-assay. As to conditions: Homo sapiens, A2780cisR, 96 h, read-out: 96-h IC50 cytotoxicity. As for the experimental part:
as §1

Data set [16] has as its system MCF7 breast carcinoma. Put plainly: Cytotoxic activity, MTT-assay. The class given is cell-based. Particulars: Homo sapiens. As for the experimental part:
(§2) Assay procedure—Cells were seeded into 96-well plates at 2,500 cells per well in DMED, containing 10% FCS and antibiotics. After overnight incubation, test compounds were prepared as dilution series in cell medium (addition of dimethylsulfoxide in the case of free paclitaxel to effect partial dissolution) and were added to the cells. For the 1-h exposure samples, incubation was continued for 1 h, cell culture medium supernatants were removed and the wells were further washed with cell culture medium (5×2 min). Total viable cells were quantitated after a total of 72 h incubation using a standard MTT-assay.
(In general: Formazan colour is commonly taken as a measure of viable cells.)

For data set [17], the system named is A549 lung carcinoma. Description: Cytotoxic activity, MTT-assay. Particulars: Homo sapiens. The class given is cell-based. As for the experimental part:
as §2

Data set [18] can be described thus: Serum stability of drug-ester linkages. The class given is in vitro ADME. As to conditions: bovine, 10% FCS in DMEM, 1 to 40 μM, 37° C., appearance of free drug, read-out: Serum t1/2 of Drug-Linker Ester bond. As for the experimental part: Hydrolysis of the ester bonds between the drug hydroxy groups and the linker carboxyl groups was assessed by appearance of free podophyllotoxin or paclitaxel.

Data set [19] relates to HL60 cells. Description: Intracellular stability. Particulars: 15 μM for 1 h, washed, 1 additional h neat medium. The class given is in vitro ADME. As for the experimental part:
After the incubation, cells were washed extensively with PBS until no test compound was detectable in the washes. Cells were incubated for one additional h with neat medium. Afterwards the cells were pelleted, resuspended in 50 mM Tris pH 7.5, containing a cocktail of protease inhibitors and they were solubilised by ultrasonication for 1 min. The insoluble fraction was pelleted for 15 min using an Eppendorf centrifuge and the supernatant was analysed by anal. RP-HPLC (0-60% MeCN gradient, λ=254 nm).

Data set [20] can be described thus: Carcinoma cell line panel, SRB-assay. As for the experimental part:
as §1

pIC50: −log10 of the molar value. Read-outs that look alike come from different tables or passages of the source. Where only a bound is given, the exact number is not on record here.

Sequence of purified recombinant human topoisomerase II (P11388 whole entry): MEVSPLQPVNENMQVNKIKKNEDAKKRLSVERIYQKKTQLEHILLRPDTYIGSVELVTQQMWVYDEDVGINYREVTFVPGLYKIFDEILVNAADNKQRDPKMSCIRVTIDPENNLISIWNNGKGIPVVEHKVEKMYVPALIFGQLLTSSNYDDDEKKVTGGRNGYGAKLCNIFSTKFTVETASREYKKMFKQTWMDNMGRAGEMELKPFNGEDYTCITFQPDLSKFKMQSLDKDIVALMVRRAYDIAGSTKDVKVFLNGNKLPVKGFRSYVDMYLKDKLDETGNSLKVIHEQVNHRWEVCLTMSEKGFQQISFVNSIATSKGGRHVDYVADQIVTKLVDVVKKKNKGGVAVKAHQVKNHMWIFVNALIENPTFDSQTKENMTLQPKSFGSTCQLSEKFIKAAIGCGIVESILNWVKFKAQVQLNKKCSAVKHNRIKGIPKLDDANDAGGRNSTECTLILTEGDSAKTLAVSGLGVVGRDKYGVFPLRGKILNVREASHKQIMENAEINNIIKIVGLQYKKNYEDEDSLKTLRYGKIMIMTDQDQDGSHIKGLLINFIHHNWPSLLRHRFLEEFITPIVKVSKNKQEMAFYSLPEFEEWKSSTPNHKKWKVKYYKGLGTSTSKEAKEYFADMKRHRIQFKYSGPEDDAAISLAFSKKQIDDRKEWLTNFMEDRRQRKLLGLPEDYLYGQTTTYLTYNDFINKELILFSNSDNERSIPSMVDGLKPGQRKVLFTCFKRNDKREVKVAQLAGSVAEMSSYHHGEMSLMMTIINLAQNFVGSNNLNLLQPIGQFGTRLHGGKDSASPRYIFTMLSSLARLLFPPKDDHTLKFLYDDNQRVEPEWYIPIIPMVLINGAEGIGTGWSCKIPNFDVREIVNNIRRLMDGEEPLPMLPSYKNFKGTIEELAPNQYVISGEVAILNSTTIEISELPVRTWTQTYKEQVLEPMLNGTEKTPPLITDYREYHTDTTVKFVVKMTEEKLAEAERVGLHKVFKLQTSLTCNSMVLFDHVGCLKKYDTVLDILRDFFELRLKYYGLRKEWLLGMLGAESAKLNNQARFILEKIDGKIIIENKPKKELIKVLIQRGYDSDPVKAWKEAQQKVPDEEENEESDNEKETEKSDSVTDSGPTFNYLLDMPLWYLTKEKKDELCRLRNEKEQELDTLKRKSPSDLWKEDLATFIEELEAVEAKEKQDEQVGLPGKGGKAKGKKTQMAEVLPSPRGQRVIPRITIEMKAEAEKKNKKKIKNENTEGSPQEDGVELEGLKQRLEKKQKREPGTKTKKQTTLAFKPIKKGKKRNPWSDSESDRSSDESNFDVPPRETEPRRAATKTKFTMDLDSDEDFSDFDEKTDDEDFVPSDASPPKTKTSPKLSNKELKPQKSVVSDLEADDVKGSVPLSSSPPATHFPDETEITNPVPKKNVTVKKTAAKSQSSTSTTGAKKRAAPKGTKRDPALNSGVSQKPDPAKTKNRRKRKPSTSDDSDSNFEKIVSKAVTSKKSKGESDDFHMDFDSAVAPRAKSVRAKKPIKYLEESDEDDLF

Turning to `COc1cc([C@@H]2c3cc4c(cc3[C@@H](Nc3ccc(N)cc3)[C@H]3COC(=O)[C@H]23)OCO4)cc(OC)c1O` [4′-Demethyl-4-(4″-aminoanilino)epipodophyllotoxin], in data set [1], the Activity observed entry was “I”.
For orientation: pIC50 means the negative decadic logarithm of the IC50, by convention in mol/L. For `COc1cc([C@@H]2c3cc4c(cc3[C@@H](O[C@@H]3O[C@@H]5CO[C@@H](C)O[C@H]5[C@H](O)[C@H]3O)[C@H]3COC(=O)[C@H]23)OCO4)cc(OC)c1O` [Etoposide], the pIC50 was 5.18 in data set [2]; 6.68 in data set [3]; 6.48 in data set [4]; 5.96 in data set [5]; 6.24 in [6]; 6.78 in [7]. The pIC50 in data set [8] is 5.72; in data set [9], 6.84; in [10] it was 6.34; in data set [11], 4.89; in data set [12] it was 6.24; in [13] it was 5.59. The pIC50 is 6.10 in data set [14] and 6.17 in [15].
`CC(=O)O[C@H]1C(=O)[C@@]2(C)[C@H]([C@H](OC(=O)c3ccccc3)[C@]3(O)C[C@H](OC(=O)[C@H](O)[C@@H](NC(=O)c4ccccc4)c4ccccc4)C(C)=C1C3(C)C)[C@]1(OC(C)=O)CO[C@@H]1C[C@@H]2O` [Paclitaxel]: the negative logarithm of the IC50 (pIC50) in data set [2] was 6.27; in data set [3] it was greater than 8.60; in data set [4] it was 8.24; in data set [5], greater than 8.60; in data set [6] it was 8.55; in data set [7], 8.38. In addition, the negative logarithm of the IC50 (pIC50) in [8] was greater than 8.60; in [9], 8.24; in data set [10], 8.07; in data set [11] it was 8.00; in data set [12] it was 7.27; in data set [13] it was greater than 8.60. Also, the negative logarithm of the IC50 (pIC50) in data set [14] was 8.59; in data set [15] it was 8.29; in data set [16] (72 h, MCF7, Exposure time 3 d) it was greater than 7.82; in data set [16] (MCF7, Exposure time 1 h, then washed, viable cells after total 72 h), 7.40; in data set [17] (72 h, A549, Exposure time 3 d) it was greater than 7.82; in data set [17] (A549, Exposure time 1 h, then washed, viable cells after total 72 h), 7.55.
Regarding “4′-Demethyl-4-[4″-aminoanilino-(succinimidopropionoyl)-(H-Cys-βAla-Arg-Arg-Met-Lys-Trp-Lys-Lys-NH2)]epipodophyllotoxin”, in data set [1], the Activity observed result was “I”.
For the compound `CC[C@H](C)[C@H](NC(=O)[C@H](CCCCN)NC(=O)[C@@H](NC(=O)[C@H](CCC(N)=O)NC(=O)[C@H](CCCNC(=N)N)NC(=O)[C@@H](N)CSC1CC(=O)N(CCC(=O)O[C@@H](C(=O)O[C@H]2C[C@@]3(O)[C@@H](OC(=O)c4ccccc4)[C@@H]4[C@]5(OC(C)=O)CO[C@@H]5C[C@H](O)[C@@]4(C)C(=O)[C@H](OC(C)=O)C(=C2C)C3(C)C)[C@@H](NC(=O)c2ccccc2)c2ccccc2)C1=O)[C@@H](C)CC)C(=O)N[C@@H](Cc1c[nH]c2ccccc12)C(=O)N[C@@H](Cc1ccccc1)C(=O)N[C@@H](CCC(N)=O)C(=O)N[C@@H](CC(N)=O)C(=O)N[C@@H](CCCNC(=N)N)C(=O)N[C@@H](CCCNC(=N)N)C(=O)N[C@@H](CCSC)C(=O)N[C@@H](CCCCN)C(=O)N[C@@H](Cc1c[nH]c2ccccc12)C(=O)N[C@@H](CCCCN)C(=O)N[C@@H](CCCCN)C(N)=O` (single isomer, unassigned) [C], in data set [18] (cell-conditioned tissue culture medium (FCS in DMEM)), the half-life is greater than 720 min.
With `CCC(C)[C@H](NC(=O)[C@H](CCCCN)NC(=O)[C@@H](NC(=O)[C@H](CCC(N)=O)NC(=O)[C@H](CCCNC(=N)N)NC(=O)[C@@H](N)CSC1CC(=O)N(CCC(=O)O[C@H]2c3cc4c(cc3[C@@H](c3cc(OC)c(OC)c(OC)c3)[C@H]3C(=O)OC[C@@H]32)OCO4)C1=O)C(C)CC)C(=O)N[C@@H](Cc1c[nH]c2ccccc12)C(=O)N[C@@H](Cc1ccccc1)C(=O)N[C@@H](CCC(N)=O)C(=O)N[C@@H](CC(N)=O)C(=O)N[C@@H](CCCNC(=N)N)C(=O)N[C@@H](CCCNC(=N)N)C(=O)N[C@@H](CCSC)C(=O)N[C@@H](CCCCN)C(=O)N[C@@H](Cc1c[nH]c2ccccc12)C(=O)N[C@@H](CCCCN)C(=O)N[C@@H](CCCCN)C(N)=O` (stereo partly drawn) [A], the half-life in [18] is greater than 1440 min. The “Intact test compound in supernatant of solubilised cells” value in [19] (RP-HPLC and MALDI-TOF MS) is “Intact test compound was identified”. In addition, the “Test compound in DMSO extracts of pellets” value in data set [19] (insoluble fraction) is given as “no test compound was detected”.
One may read the IC50 as the concentration that inhibits the measured activity by half. In data set [20], `CC[C@H](C)[C@H](NC(=O)[C@H](CCCCN)NC(=O)[C@@H](NC(=O)[C@H](CCC(N)=O)NC(=O)[C@H](CCCNC(=N)N)NC(=O)[C@@H](N)CSC1CC(=O)N(CCC(=O)O[C@H]2C[C@H]3OC[C@@]3(OC(C)=O)[C@H]3[C@H](OC(=O)c4ccccc4)[C@]4(O)C[C@H](OC(=O)[C@H](O)[C@@H](NC(=O)c5ccccc5)c5ccccc5)C(C)=C([C@@H](OC(C)=O)C(=O)[C@]23C)C4(C)C)C1=O)[C@@H](C)CC)C(=O)N[C@@H](Cc1c[nH]c2ccccc12)C(=O)N[C@@H](Cc1ccccc1)C(=O)N[C@@H](CCC(N)=O)C(=O)N[C@@H](CC(N)=O)C(=O)N[C@@H](CCCNC(=N)N)C(=O)N[C@@H](CCCNC(=N)N)C(=O)N[C@@H](CCSC)C(=O)N[C@@H](CCCCN)C(=O)N[C@@H](Cc1c[nH]c2ccccc12)C(=O)N[C@@H](CCCCN)C(=O)N[C@@H](CCCCN)C(=O)O` (stereo partly drawn) [7-Paclitaxel Vector Conjugate] gave an IC50 at 96 h greater than 25 µM.

The values are drawn from patent US6992169B2, “Carrier based drug delivery system” (Cyclacel Limited, priority 1998, dated 2006).
